Assay results taken from patent US20220370434A1, “METHODS AND COMPOSITIONS FOR TREATING CANCER” (City of Hope, priority 2019, published 2022).

Columns and labels:
[1] = tested on: primary murine MLL-AF9 (MA9) leukemic cells; experiment: Colony forming assay; settings: 1 μM
Protocol: MA9 murine leukemic cells were used for colony forming assay.
(§3) Serial colony-forming assay: The assay was employed as described previously with some modification (31). […] The dishes were incubated at 37° C. in a humidified atmosphere of 5% C02 in air for 7 days. Then, colony cells were collected and replated every 7 days with 20,000 cells/dish for 3 passages. Colony numbers were counted and compared for each passage.

[2] = tested on: murine FLT3ITD/NPM1mut leukemic cells; experiment: Colony forming assay; settings: 10 nM or 50 nM
Protocol: as §3

HONO-1 AML cells = experiment: Combination with DNMT inhibitors, cell growth; format: cell-based; settings: 256 nM formula (IIa), 48 hours
Protocol: HONO-1 AML cells were treated with 256 nM compound of formula (IIa), 1000 nM AZA, 100 nM DAC, or their combinations for 48 hours. Effects of compound of formula (IIa), DAC, AZA and combined effects of compound of formula (IIa) with either DAC or AZA on HONO-1 AML cell growth was measured (FIG. 9C).

NB4 cells = experiment: Combination with DNMT inhibitors, cell growth; format: cell-based; settings: 48 hours, 256 nM formula (IIa)
Protocol: Cell proliferation was measured. […] This experiment was repeated with NB4 cells. […] Synergistic inhibitory effect of FTO inhibitor together with DNMT inhibitor on cell proliferation was observed.
NB4 AML cells were treated with 256 nM compound of formula (IIa), 1000 nM AZA, 100 nM DAC, or their combinations for 48 hours. Effects of compound of formula (IIa), DAC, AZA and combined effects of compound of formula (IIa) with either DAC or AZA on […] AML cell growth was measured (FIG. 9D).

MA9.3ITD AML cells = experiment: Xenograft AML mouse model with MA9.3ITD cells; settings: cells pretreated 100 nM 48 hours; 2 mg/kg/day every other day i.p., ten treatments
Protocol: For xenograft AML models with NRGS mice, the leukemia AML cells, with high endogenous FTO expression, were pretreated with 100 nM FTO inhibitors for 48 hours before transplantation, and drug treatment was started at day 11 after transplantation.
Xenograft AML mouse models and AML PDX mouse models: NRG-SGM3 mice were used for both ‘human-in-mouse’ xeno-transplanation models and PDX models. […] For xenograft mouse, 0.1×10^6 MA9.3ITD cells were transplanted into NRGS recipient mice intravenously. Drug treatment was started from 10 days after transplanatation.

[3] = tested on: PD-L1 and PD-L2 in AML cells (MONOMAC 6); experiment: Expression of PD-L1 and PD-L2 upon DNMT inhibitor treatment; settings: for expression of PD-L1/2: in AML
Protocol: Expression of PD-L1, PD-L2, and m^6A abundance upon DNMT inhibitor treatment in AML cells was analyzed. MONOMAC 6 cells were treated with PBS, 1 μM, 3 μM, and 5 μM DAC for 48 hours.

[4] = Solubility and uptake after i.p. injection (dissection); format: physicochemical, mice; settings: yellow/orange crystals in abdomen
Protocol: Mice from PDX mouse model were treated with compound of formula (I) via i.p. injection and later dissected.

AML cells = experiment: Sensitization of AML cells to other therapeutic agents; settings: for effect with TKI in inhibiting viability: human AML cells
pancreatic cancer = experiment: Anti-tumor effects in solid tumors; format: cell-based
Excerpt: (§1) Besides in hematopoietic malignancy, FTO also plays oncogenic function in solid tumors, such as glioblastoma (GBM) and lung squamous cell carcinoma (LUSC). To broaden the application of the FTO inhibitors in additional cancers, expression of FTO in various types of cancers was adopted from cBioPortal for Cancer Genomics (http://www.cbioportal.org/).
(§2) Cell culture: For leukemia cells, U937 and MV4-11 were obtained from American Type Culture Collection (ATCC) and cultured in endotoxin-free RPMI1640 supplemented with 10% fetal bovine serum (FBS) (Gemini Bio-Products); K562 (ATCC) was cultured in IMDM with 10% FBS; NOMO-1, ML-2, NB4 were obtained from DSMZ and kept in RPM11640 with 10% FBS; SKNO-1 (DSMZ) was maintained in RPM11640 with 10% FBS and 10 ng/ml GM-CSF; MA9.3ITD (MLL-AF9 plus FLT3-ITD-transformed human CD34^+ cord blood) and MA9.3RAS (MLL-AF9 plus NRasG12D-transformed human CD34^+ cord blood), established by Dr. James Mulloy (30), were maintained in IMDM supplemented with 20% FBS. AML patient-derived primary cells were kept in IDMD supplemented with 20% FBS, 10 ng/ml human cytokines SCF, TPO, FLT3 ligand, IL-3, and IL-6. The glioblastoma cell lines, including 8MGBA, A172 and U87MG were originally maintained by Dr. David Plas from University of Cincinnati, and cultured in RPMI1640 with 10% FBS. Breast tumor cell lines, including ZR-75-1 and MDA-MB-231, were purchased from ATCC, and cultivated in RPMI1640 with 10% FBS. The cell lines from lung cancer, H1993, H2009, and H1437, and pancreatic cancer cells Capan-1 and miAPACA2 were kindly provided by Dr. Ravi Salgia from City of hope, and maintained in RPMI1640 with 10% FBS. All the cells are not among commonly misidentified cells lines, and were tested for Mycoplasma contamination yearly using a PCR Mycoplasma Detection Kit (Applied Biological Materials Inc.). In order to prevent potential contamination, all the mediums were supplemented with Penicillin-Streptomycin (15140122, Life Technologies) and Plasmocin prophylactic (Applied Biological Materials Inc.) according to the manufacture's instruction.

breast tumors = experiment: Anti-tumor effects in solid tumors; format: cell-based
Excerpt: as §1, §2

Glioma = experiment: Anti-tumor effects in solid tumors; format: cell-based
Excerpt: as §1, §2

NOMO-1 cells = experiment: Cell apoptosis assay; format: cell-based; settings: 48 hour; 50, 200, 400 nM formula (I); 100, 500, 1000 nM formula (II)
Protocol: Cell cycle and apoptosis assays: Propidium Iodide (PI) DNA staining was chosen to assess the cells located at G0/G1, S, and G2/M stages; while Hoechest 33342 and Pyronin Y was selected to evaluate cells at G0, G1, and S/G2/M phases. For PI staining, 1*10^6 cells were collected, washed once with PBS, and suspended in 1 ml buffer with 0.05 mg/ml PI, 0.1% trisodium citrate, 0.02 mg/ml ribonuclease A, 0.3% NP-40, incubated at 37° C. for 30 minutes, and then applied to flow cytometer directly. As Hochest 33342/Pyronin Y staining, the cells were collected, washed, and re-suspended in 1 ml cell culture medium, stained with 10 μg/ml Hochest 33342 at 37° C. for 45 minutes, and further stained with 0.5 μg/ml Pyronin Y for additional 15 minutes at 37° C. The samples were transferred onto ice before subjected to flow cytometry. Cell apoptosis was validated with PE Annexin V Apoptosis Detection Kit I (559763, BD Biosciences) according to the instructed protocol. Flow cytometry was performed with Fortessa X20 and the related results were analyzed with FlowJo V10 software.

[5] = tested on: AML patient-derived CD34+ cells; experiment: Cell viability of AML patient-derived CD34+ cells; format: cell-based, human; settings: 100 nM formula (I), 200 nM formula (II), 48 hours
MONOMAC 6 cells = experiment: Response to DNMT inhibitors after pretreatment; format: cell-based; settings: pretreated 64 nM 48 hours; 100 nM DAC or 100 nM AZA
[6] = tested on: primary AML cells from a relapsed AML patient; experiment: AML PDX mouse model; settings: i.p.
Protocol: (§4) The experiment was repeated with secondary BMT with MA9 leukemic cells. […] 1×10^6 mononuclear cells (MNCs) were isolated from bone marrow of the AML patients and transplanted into NRGS recipient mice. Drug treatment (5 mg/kg/day, every other day treatment, 10 times in total) was started from day 8 after transplantation.
As PDX mouse models, 1×10^6 AML patient derived cells were transplanted into NRGS recipient mice intravenously, and drug treatment was started from 7 days later.

Protocol for MA9 murine AML cells: as §4
The study was done following secondary BMT with murine MA9 cells, where drug treatment was initiated 7 days after BMT. […] Treatment strategy for DAC: 0.1 mg/kg/day, three times for one week, two weeks in total, i.p. injection.
The Lin^− progenitor cells were retrovirally transduced with MSCV-Neo-MA9 construct through two rounds of ‘spinoculation’ as described previously (31). […] For secondary BMT assays, primary leukemic mouse bone marrow cells (CD45.2+) were collected and sorted by flow cytometry when the mice developed full-blown AML. The cells were injected into sub-lethally irradiated (570 rads) secondary recipient mice with 0.1×10^6 donor cells per mouse via tail vein injection.

Row | Structure (SMILES) | expression of PD-L1/2 [3] | sensitization to ATRA, DNR, Ara-C, Aza and DAC (AML cells) | effect with TKI in inhibiting viability (AML cells) | growth (pancreatic cancer) | growth (breast tumors) | growth (Glioma) | cell apoptosis (NOMO-1 cells) | cell viability [5] | also measured
1 | O=C(O)c1cc(-c2ccc(-c3ccccc3)cc2)nc2ccccc12 [formula (IIa)] | – | – | – | – | – | – | – | – | colony forming activity [1]: decreased colony forming activity; inhibitory effect on colony forming activity compared with formula (II) [1]: slightly stronger inhibitory effect; inhibitory effect on colony forming activity compared with formula (II) [2]: slightly stronger inhibitory effect; colony forming activity ([2]; b415): dose dependent decreased colony forming activity; effect with DAC on cell growth (HONO-1 AML cells; 100 nM DAC): synergistic effects; effect with AZA on cell growth (HONO-1 AML cells; 1000 nM AZA): synergistic effects; effect with DAC on cell growth (NB4 cells; 100 nM DAC): synergistic effects; effect with AZA on cell growth (NB4 cells; 1000 nM AZA): synergistic effects
2 | Cc1noc(C)c1-c1cc(Cl)c(Nc2ccccc2C(=O)NO)c(Cl)c1 [FB23-2, reference compound] | – | – | – | – | – | – | – | – | survival (Kaplan-Meier) (MA9.3ITD AML cells): lived significantly longer than the control groups
3 | Nc1ncn([C@@H]2O[C@H](CO)[C@@H](O)[C@H]2O)c(=O)n1 [AZA, 5-azacytidine] | upregulation of PD-L1/2 | – | – | – | – | – | – | – | –
4 | Nc1ncn([C@H]2C[C@H](O)[C@@H](CO)O2)c(=O)n1 [DAC, 5-aza-2′-deoxycytidine] | upregulation of PD-L1/2 | – | – | – | – | – | – | – | expression of PD-L1 and PD-L2 ([3]; MONOMAC 6, 1 μM, 3 μM, 5 μM, 48 hours): induced expression of PD-L1 and PD-L2 in a dose dependent manner
5 | C(=N\NC1=NCCN1)/c1c2ccccc2c(/C=N/NC2=NCCN2)c2ccccc12 [formula (I)] | – | sensitize AML cells | synergize with TKI | growth disadvantage | growth disadvantage | growth disadvantage | dose-dependent increase in cell apoptosis | significantly decreased cell viability of AML | solubility and uptake [4]: extreme low solubility and uptake; inhibition of cell proliferation by DAC or AZA after pretreatment (MONOMAC 6 cells): increased inhibition in cell proliferation
6 | Cc1c(-c2ccc(-c3ccccc3F)cc2)nc2ccc(F)cc2c1C(=O)O [formula (II)] | – | sensitize AML cells | synergize with TKI | growth disadvantage | growth disadvantage | growth disadvantage | dose-dependent increase in cell apoptosis | significantly decreased cell viability of AML | anti-leukemia effect, survival (Kaplan-Meier) ([6]; 5 mg/kg/day every other day, 10 times, in PBS): strong anti-leukemia effect; anti-leukemia effect, engraftment of AML patient cells into bone marrow ([6]; hCD45 and hCD33 positive cells at day 26): strong anti-leukemia effect; effect with DAC on survival (Kaplan-Meier) (MA9 murine AML cells; 5 mg/kg/day FTO inhibitor, DAC 0.1 mg/kg/day i.p.): synergistic effect; anti-leukemia effects (delaying leukemogenesis, improving survival) (MA9 murine AML cells; 5 mg/kg/day every other day, ten treatments, i.p. or i.v. (micelle)): promising anti-leukemia effects
